Laboratory results from patent publication US9346820B2, “HIV-1 protease inhibitors having gem-di-fluoro bicyclic P2-ligands” (priority 2013, dated 2016).
Read-outs that look alike come from different tables or passages of the source.

Experiments:
[1] = tested on: HIV-1NL4-3; assay: p24 Gag production inhibition in MT-4 cells, wild-type laboratory strain; assay type: cell-based
Protocol: The susceptibility of HIV-1LAI to various drugs was determined as previously described with minor modifications. Briefly, MT-2 cells (10^4/ml) were exposed to 100 50% tissue culture infectious doses (TCID50) of HIV-1LAI in the presence or absence of various concentrations of drugs in 96-well microculture plates and were incubated at 37° C. for 7 days. After 100 μl of the medium was removed from each well, 3-(4,5-dimetylthiazol-2-yl)-2,5-diphenyltetrazolium bromide (MTT) solution (10 μl, 7.5 mg/ml in phosphate-buffered saline) was added to each well in the plate, followed by incubation at 37° C. for 2 h. […] All assays were performed in duplicate or triplicate. […] To determine the sensitivity of primary HIV-1 isolates to drugs, phytohemagglutinin-stimulated peripheral blood mononuclear cells (PHA-PBMC) (10^6/ml) were exposed to 50 TCID50 of each primary HIV-1 isolate and cultured in the presence or absence of various concentrations of drugs in 10-fold serial dilutions in 96-well microculture plates. In determining the drug susceptibility of certain laboratory HIV-1 strains, MT-4 cells were employed as target cells as previously described with minor modifications. In brief, MT-4 cells (10^5/ml) were exposed to 100 TCID50 of drug-resistant HIV-1 strains in the presence or absence of various concentrations of drugs and were incubated at 37° C. On day 7 of culture, the supernatants were harvested and the amounts of p24 Gag protein were determined by using a fully automated chemiluminescent enzyme immunoassay system (Lumipulse F: Fujirebio Inc., Tokyo). […] All assays were performed in duplicate or triplicate. PHA-PBMs were derived from a single donor in each independent experiment. Thus, for obtaining the data, three different donors were recruited.

[2] = Cytotoxicity (CC50), MTT assay; assay type: cell-based; details: human
Protocol: The susceptibility of HIV-1LAI to various drugs was determined as previously described with minor modifications. Briefly, MT-2 cells (10^4/ml) were exposed to 100 50% tissue culture infectious doses (TCID50) of HIV-1LAI in the presence or absence of various concentrations of drugs in 96-well microculture plates and were incubated at 37° C. for 7 days. After 100 μl of the medium was removed from each well, 3-(4,5-dimetylthiazol-2-yl)-2,5-diphenyltetrazolium bromide (MTT) solution (10 μl, 7.5 mg/ml in phosphate-buffered saline) was added to each well in the plate, followed by incubation at 37° C. for 2 h. […] All assays were performed in duplicate or triplicate. […] In determining the drug susceptibility of certain laboratory HIV-1 strains, MT-4 cells were employed as target cells as previously described with minor modifications. In brief, MT-4 cells (10^5/ml) were exposed to 100 TCID50 of drug-resistant HIV-1 strains in the presence or absence of various concentrations of drugs and were incubated at 37° C. On day 7 of culture, the supernatants were harvested and the amounts of p24 Gag protein were determined by using a fully automated chemiluminescent enzyme immunoassay system (Lumipulse F: Fujirebio Inc., Tokyo). […] All assays were performed in duplicate or triplicate. PHA-PBMs were derived from a single donor in each independent experiment. Thus, for obtaining the data, three different donors were recruited.

[3] = tested on: variants selected with DRV over 10 and 20 passages; assay: Antiviral activity against DRV-resistant variants selected over 10 and 20 passages; assay type: cell-based, HIV-1; details: Human immunodeficiency virus 1, read-out: EC50 against variants selected with DRV over 10 and 20 passages
[4] = tested on: multi-drug-resistant clinical HIV-1 variants; assay: p24 assay in PHA-PBMs, the six multi-drug-resistant clinical variants taken together; assay type: cell-based; details: Human immunodeficiency virus 1, read-out: EC50 values against clinical multi-drug-resistant variants
Protocol: The susceptibility of HIV-1LAI to various drugs was determined as previously described with minor modifications. Briefly, MT-2 cells (10^4/ml) were exposed to 100 50% tissue culture infectious doses (TCID50) of HIV-1LAI in the presence or absence of various concentrations of drugs in 96-well microculture plates and were incubated at 37° C. for 7 days. After 100 μl of the medium was removed from each well, 3-(4,5-dimetylthiazol-2-yl)-2,5-diphenyltetrazolium bromide (MTT) solution (10 μl, 7.5 mg/ml in phosphate-buffered saline) was added to each well in the plate, followed by incubation at 37° C. for 2 h. […] All assays were performed in duplicate or triplicate. […] To determine the sensitivity of primary HIV-1 isolates to drugs, phytohemagglutinin-stimulated peripheral blood mononuclear cells (PHA-PBMC) (10^6/ml) were exposed to 50 TCID50 of each primary HIV-1 isolate and cultured in the presence or absence of various concentrations of drugs in 10-fold serial dilutions in 96-well microculture plates. In determining the drug susceptibility of certain laboratory HIV-1 strains, MT-4 cells were employed as target cells as previously described with minor modifications. […] On day 7 of culture, the supernatants were harvested and the amounts of p24 Gag protein were determined by using a fully automated chemiluminescent enzyme immunoassay system (Lumipulse F: Fujirebio Inc., Tokyo). […]

[5] = tested on: HIV-1NL4-3; assay: In vitro selection of PI-resistant HIV-1 variants in MT-4 cells with sequencing of the protease-encoding region; assay type: cell-based
Description: MT-4 cells ([…]) were exposed to HIV-1NL4-3 (500 TCID50) and cultured in the presence of various PIs at an initial concentration of its EC50 value. Viral replication was monitored by the determination of the amount of p24 Gag produced by MT-4 cells. The culture supernatants were harvested on day 7 and used to infect fresh MT-4 cells for the next round of culture in the presence of increasing concentrations of each drug. When the virus began to propagate in the presence of the drug, the drug concentration was increased generally 2- to 3-fold. Proviral DNA samples obtained from the lysates of infected cells were subjected to nucleotide sequencing. This drug selection procedure was carried out until the drug concentration reached 5 μM (31-33). In the experiments for selecting drug-resistant variants, MT-4 cells were exploited as target cells since HIV-1 in general replicates at greater levels in MT-4 cells than in MT-2 cells.
Molecular cloning and determination of the nucleotide sequences of HIV-1 strains passaged in the presence of anti-HIV-1 agents were performed as described previously (31). In brief, high molecular-weight DNA was extracted from HIV-1-infected MT-4 cells by using the InstaGene Matrix (Bio-Rad Laboratories, Hercules, Calif.) and was subjected to molecular cloning, followed by sequence determination. The primers used for the first round of PCR with the entire Gag- and protease-encoding regions of the HIV-1 genome were LTR F1 (5′-GATGCTACATATAAGCAGCTGC-3′; SEQ ID NO: 13) and PR12 (5′-CTCGTGACAAATTTCTACTAATGC-3′; SEQ ID NO: 14). The first-round PCR mixture consisted of 1 μl of proviral DNA solution, 10 μl of Premix Taq (Ex Taq Version; Takara Bio Inc., Otsu, Japan), and 10 pmol of each of the first PCR primers in a total volume of 20 μl. The PCR conditions used were an initial 3 min at 95° C., followed by 35 cycles of 40 sec at 95° C., 20 sec at 55° C., and 2 min at 72° C., with a final 10 min of extension at 72° C. The first-round PCR products (1 μl) were used directly in the second round of PCR with primers LTR F2 (5′-GAGACTCTGGTAACTAGAGATC-3′; SEQ ID NO: 15) and Ksma2.1 (5′-CCATCCCGGGCTTTAATTTTACTGGTAC-3′; SEQ ID NO: 16) under the PCR conditions of an initial 3 min at 95° C., followed by 35 cycles of 30 sec at 95° C., 20 sec at 55° C., and 2 min at 72° C., with a final 10 min of extension at 72° C. The second-round PCR products were purified with spin columns (MicroSpin S-400 HR columns; Amersham Biosciences Corp., Piscataway, N.J.), cloned directly, and subjected to sequencing with a model 3130 automated DNA sequencer (Applied Biosystems, Foster City, Calif.).

[6] = Human immunodeficiency virus 1, MT4, read-out: EC50 HIV-1NL4-3
[7] = Human immunodeficiency virus 1, MT4, MT-4 cells, p24 Gag endpoint, read-out: EC50 HIV-1NL4-3

## COC(=O)N[C@H](C(=O)N[C@@H](Cc1ccccc1)[C@@H](O)CN(Cc1ccc(-c2ccccn2)cc1)NC(=O)[C@@H](NC(=O)OC)C(C)(C)C)C(C)(C)C [ATV, Atazanavir]
[1]; [6]
  EC50: 0.0047 µM
[2]
  CC50 at 7 days: 28.6 ± 0.9 µM

## CC(C)CN(C[C@@H](O)[C@H](Cc1ccccc1)NC(=O)O[C@H]1CO[C@H]2OCC[C@H]21)S(=O)(=O)c1ccc(N)cc1 [DRV, darunavir]
[1]; [6]
  EC50: 0.004 µM

## CC(C)CN(C[C@@H](O)[C@H](Cc1ccccc1)NC(=O)O[C@H]1CO[C@H]2OCC(F)(F)[C@H]21)S(=O)(=O)c1ccc(N)cc1 [GRL-05010]
[3]
  EC50: 0.026 to 0.043 µM
[4]
  EC50: 0.002 to 0.021 µM
[5]; by passage 15
  amino acid substitutions in the protease-encoding region of selected HIV-1NL4-3: M46I and I50V by passage 15 in all 24 clones examined, while N38K was detected in 8 of 24 clones and M36I in 3 clones
[5]; by passage 15, starting at 0.003 μM, MT-4 cells
  concentration in the presence of which HIV-1NL4-3 attained an ability to replicate: 0.037 µM
[1]; [7]
  EC50: 0.0037 µM

## COc1ccc(S(=O)(=O)N(CC(C)C)C[C@@H](O)[C@H](Cc2ccccc2)NC(=O)OC2CO[C@H]3OCC(F)(F)[C@@H]23)cc1 (stereo partly shown) [GRL-04810]
[3]
  EC50: 0.03 to 0.034 µM
[4]
  EC50: 0.002 to 0.021 µM
[5]; 25 passages, initial concentration 0.003 μM, MT-4 cells
  concentration in the presence of which HIV-1NL4-3 had acquired an ability to replicate: 0.080 µM
[5]; 25 passages, relative to initial concentration 0.003 μM
  fold-increased concentration tolerated by selected virus: 26 fold
[1]; [7]
  EC50: 0.0005 µM
[2]
  CC50 at 7 days: 17.5 µM

## CC(C)(C)NC(=O)[C@@H]1C[C@@H]2CCCC[C@@H]2CN1C[C@@H](O)[C@H](Cc1ccccc1)NC(=O)[C@H](CC(N)=O)NC(=O)c1ccc2ccccc2n1 [SQV, Saquinavir]
[1]; [6]
  EC50: 0.037 µM
[2]; 50% cytotoxicity, read-out: CC50
  CC50 at 7 days: 17.7 ± 3.4 µM
